For six compounds, inhibition results are on record in patent US20070270418A1, “Inhibitors of P38 and Methods of Using the Same” (priority 2003, published 2007).

Holding throughout (experiment): Broad selectivity panel, 32P incorporation
Common to all, as to type: biochemical

For one assay, the target named is T1, CDK2/cyclinA (Homo sapiens, UniProt P24941).
T1 construct: purchased Upstate (Charlottesville, Va.)
As to conditions: 40 μM ATP, read-out: Percent inhibition CDK2/cyclinA; for inhibition at 0.1 µM: 0.1 μM compound; for inhibition at 1 µM: 1 μM compound. As for the experimental part:
(§1) Various compounds of the present invention are screened against a panel of 24 additional kinases (Upstate, Charlottesville, Va.). Compounds are tested 0.1 μM and 1 μM in reactions containing 40 μM ATP. Incorporation of radiolabeled phosphate (^32P) into each kinase substrate is measured in the presence and absence of test compound. Results are reported as the percent decrease in the amount of ^32P incorporated into the substrate in the presence of compound, compared to buffer control.

A further assay deals with T2, FGFR3 (Homo sapiens, UniProt P22607).
T2 construct: purchased Upstate (Charlottesville, Va.)
T2 sequence (P22607 23-806, species assumed): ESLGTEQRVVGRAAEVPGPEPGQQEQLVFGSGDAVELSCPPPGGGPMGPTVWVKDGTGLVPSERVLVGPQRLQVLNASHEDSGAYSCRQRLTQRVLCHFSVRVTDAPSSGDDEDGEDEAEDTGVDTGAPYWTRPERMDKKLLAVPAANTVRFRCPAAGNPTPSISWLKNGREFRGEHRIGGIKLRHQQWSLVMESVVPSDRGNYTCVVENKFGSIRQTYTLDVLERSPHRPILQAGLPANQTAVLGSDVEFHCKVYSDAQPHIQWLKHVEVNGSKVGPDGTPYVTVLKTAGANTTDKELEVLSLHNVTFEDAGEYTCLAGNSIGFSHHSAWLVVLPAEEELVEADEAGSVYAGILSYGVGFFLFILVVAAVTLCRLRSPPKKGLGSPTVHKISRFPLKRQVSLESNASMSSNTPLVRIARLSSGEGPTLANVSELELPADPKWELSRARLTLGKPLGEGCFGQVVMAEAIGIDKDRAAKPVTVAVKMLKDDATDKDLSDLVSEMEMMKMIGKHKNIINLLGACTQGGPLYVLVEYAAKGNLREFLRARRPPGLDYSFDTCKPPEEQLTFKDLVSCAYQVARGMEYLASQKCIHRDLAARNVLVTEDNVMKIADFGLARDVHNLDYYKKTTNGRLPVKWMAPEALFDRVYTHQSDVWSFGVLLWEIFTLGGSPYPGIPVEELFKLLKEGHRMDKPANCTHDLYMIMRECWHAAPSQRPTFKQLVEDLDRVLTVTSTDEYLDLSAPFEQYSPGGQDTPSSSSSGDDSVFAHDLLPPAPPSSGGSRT
To be noted: 40 μM ATP, read-out: Percent inhibition FGFR3; for inhibition at 0.1 µM: 0.1 μM compound; for inhibition at 1 µM: 1 μM compound. As for the experimental part:
as §1

Another assay concerns the target T3, JNK3-His (Homo sapiens, UniProt P53779).
T3 construct: His; purchased Upstate (Charlottesville, Va.)
To be noted: 40 μM ATP, read-out: Percent inhibition JNK3-His; for inhibition at 0.1 µM: 0.1 μM compound; for inhibition at 1 µM: 1 μM compound. The protocol: as §1

For the next assay, the target named is T4, MKK6 (Homo sapiens, UniProt P52564).
T4 construct: purchased Upstate (Charlottesville, Va.)
T4 sequence (P52564 1-334): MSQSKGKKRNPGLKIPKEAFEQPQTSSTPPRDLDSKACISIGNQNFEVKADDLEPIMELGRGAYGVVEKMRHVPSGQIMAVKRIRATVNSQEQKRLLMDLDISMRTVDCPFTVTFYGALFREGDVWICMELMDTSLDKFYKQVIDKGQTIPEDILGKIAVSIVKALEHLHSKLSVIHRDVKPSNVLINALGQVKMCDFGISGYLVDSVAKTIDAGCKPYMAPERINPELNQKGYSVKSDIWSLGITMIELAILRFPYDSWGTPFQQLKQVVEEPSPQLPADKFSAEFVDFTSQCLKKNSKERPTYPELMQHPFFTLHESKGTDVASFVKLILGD
As to conditions: 40 μM ATP, read-out: Percent inhibition MKK6; for inhibition at 0.1 µM: 0.1 μM compound; for inhibition at 1 µM: 1 μM compound. The protocol:
as §1

A further assay deals with T5, PKB α (Homo sapiens, UniProt P31749).
T5 construct: purchased Upstate (Charlottesville, Va.)
T5 sequence (P31749 whole entry, species assumed): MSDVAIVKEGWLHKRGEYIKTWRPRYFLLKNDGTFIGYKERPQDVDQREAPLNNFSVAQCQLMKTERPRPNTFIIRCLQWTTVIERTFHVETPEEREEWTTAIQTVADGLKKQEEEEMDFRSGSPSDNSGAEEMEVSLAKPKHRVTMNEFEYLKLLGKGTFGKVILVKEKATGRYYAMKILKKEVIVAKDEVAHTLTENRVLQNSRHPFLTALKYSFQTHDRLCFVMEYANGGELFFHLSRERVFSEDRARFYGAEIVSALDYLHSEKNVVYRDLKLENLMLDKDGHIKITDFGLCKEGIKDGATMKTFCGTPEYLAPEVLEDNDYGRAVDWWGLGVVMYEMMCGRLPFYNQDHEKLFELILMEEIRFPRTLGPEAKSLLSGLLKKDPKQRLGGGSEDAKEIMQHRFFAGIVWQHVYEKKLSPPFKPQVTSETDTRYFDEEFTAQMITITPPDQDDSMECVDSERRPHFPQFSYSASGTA
To be noted: 40 μM ATP, read-out: Percent inhibition PKB α; for inhibition at 0.1 µM: 0.1 μM compound; for inhibition at 1 µM: 1 μM compound. The protocol:
as §1

The next assay concerns the target T6, SAPK4 (Homo sapiens, UniProt O15264).
T6 construct: purchased Upstate (Charlottesville, Va.)
T6 sequence (O15264 1-365): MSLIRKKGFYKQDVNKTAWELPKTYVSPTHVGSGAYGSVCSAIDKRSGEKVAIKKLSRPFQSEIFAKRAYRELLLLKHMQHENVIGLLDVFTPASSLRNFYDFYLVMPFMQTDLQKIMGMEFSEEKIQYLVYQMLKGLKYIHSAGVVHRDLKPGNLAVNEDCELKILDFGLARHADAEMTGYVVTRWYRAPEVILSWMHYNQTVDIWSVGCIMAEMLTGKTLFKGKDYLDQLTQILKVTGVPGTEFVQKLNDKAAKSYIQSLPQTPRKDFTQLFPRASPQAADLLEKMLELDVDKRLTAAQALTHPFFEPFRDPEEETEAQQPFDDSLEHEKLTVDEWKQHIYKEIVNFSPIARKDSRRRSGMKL
To be noted: 40 μM ATP, read-out: Percent inhibition SAPK4; for inhibition at 0.1 µM: 0.1 μM compound; for inhibition at 1 µM: 1 μM compound. The protocol:
as §1

The target of the next assay is T7, CaMKIV (Homo sapiens, UniProt Q16566).
T7 construct: purchased Upstate (Charlottesville, Va.)
T7 sequence (Q16566 1-473): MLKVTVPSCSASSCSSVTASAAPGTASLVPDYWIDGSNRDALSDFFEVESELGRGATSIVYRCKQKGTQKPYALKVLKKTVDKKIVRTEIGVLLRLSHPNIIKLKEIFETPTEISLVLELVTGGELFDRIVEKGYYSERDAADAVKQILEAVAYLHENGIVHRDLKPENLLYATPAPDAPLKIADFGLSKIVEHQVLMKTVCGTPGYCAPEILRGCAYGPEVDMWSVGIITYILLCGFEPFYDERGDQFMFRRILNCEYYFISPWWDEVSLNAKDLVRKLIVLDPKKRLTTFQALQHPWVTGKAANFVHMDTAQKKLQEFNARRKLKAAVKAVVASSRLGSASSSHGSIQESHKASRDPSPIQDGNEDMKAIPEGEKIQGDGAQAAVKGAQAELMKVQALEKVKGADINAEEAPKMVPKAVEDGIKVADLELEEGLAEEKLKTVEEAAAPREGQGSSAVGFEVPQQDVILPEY
To be noted: 40 μM ATP, read-out: Percent inhibition CaMKIV; for inhibition at 0.1 µM: 0.1 μM compound; for inhibition at 1 µM: 1 μM compound. The protocol: as §1

Another assay has as its target T8, PKA (Homo sapiens, UniProt P17612).
T8 construct: purchased Upstate (Charlottesville, Va.)
To be noted: 40 μM ATP, read-out: Percent inhibition PKA; for inhibition at 0.1 µM: 0.1 μM compound; for inhibition at 1 µM: 1 μM compound. The protocol:
as §1

The target in a further assay is T9, MAPK1 (Homo sapiens, UniProt P27361).
T9 construct: purchased Upstate (Charlottesville, Va.)
T9 sequence (P27361 whole entry): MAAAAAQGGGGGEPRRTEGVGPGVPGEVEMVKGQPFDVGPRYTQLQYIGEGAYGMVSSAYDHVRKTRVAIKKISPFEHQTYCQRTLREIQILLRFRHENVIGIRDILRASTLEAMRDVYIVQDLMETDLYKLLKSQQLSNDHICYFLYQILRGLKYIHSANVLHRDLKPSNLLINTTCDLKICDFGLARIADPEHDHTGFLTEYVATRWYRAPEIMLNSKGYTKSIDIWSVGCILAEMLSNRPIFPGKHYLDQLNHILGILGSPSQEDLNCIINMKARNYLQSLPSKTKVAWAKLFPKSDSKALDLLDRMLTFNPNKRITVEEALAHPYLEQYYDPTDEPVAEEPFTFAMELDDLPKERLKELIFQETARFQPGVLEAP
To be noted: 40 μM ATP, read-out: Percent inhibition MAPK1; for inhibition at 0.1 µM: 0.1 μM compound; for inhibition at 1 µM: 1 μM compound. The protocol:
as §1

Another assay addresses T10, MEK1 (Homo sapiens, UniProt Q02750).
T10 construct: purchased Upstate (Charlottesville, Va.)
To be noted: 40 μM ATP, read-out: Percent inhibition MEK1; for inhibition at 0.1 µM: 0.1 μM compound; for inhibition at 1 µM: 1 μM compound. As for the experimental part:
as §1

T3 sequence (P53779 whole entry): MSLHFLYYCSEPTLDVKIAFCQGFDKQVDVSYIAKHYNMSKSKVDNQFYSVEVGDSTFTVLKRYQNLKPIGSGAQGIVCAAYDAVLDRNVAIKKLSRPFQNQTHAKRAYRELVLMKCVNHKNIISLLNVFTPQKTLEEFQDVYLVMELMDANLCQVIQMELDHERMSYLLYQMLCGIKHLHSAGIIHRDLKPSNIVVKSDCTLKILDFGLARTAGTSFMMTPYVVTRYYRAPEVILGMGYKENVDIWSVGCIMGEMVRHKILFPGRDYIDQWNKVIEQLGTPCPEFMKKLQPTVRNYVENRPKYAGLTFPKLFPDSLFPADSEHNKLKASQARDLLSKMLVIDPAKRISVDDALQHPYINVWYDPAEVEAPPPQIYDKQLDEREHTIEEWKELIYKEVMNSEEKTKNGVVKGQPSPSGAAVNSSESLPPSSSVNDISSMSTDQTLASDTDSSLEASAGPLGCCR
T10 sequence (Q02750 whole entry, species assumed): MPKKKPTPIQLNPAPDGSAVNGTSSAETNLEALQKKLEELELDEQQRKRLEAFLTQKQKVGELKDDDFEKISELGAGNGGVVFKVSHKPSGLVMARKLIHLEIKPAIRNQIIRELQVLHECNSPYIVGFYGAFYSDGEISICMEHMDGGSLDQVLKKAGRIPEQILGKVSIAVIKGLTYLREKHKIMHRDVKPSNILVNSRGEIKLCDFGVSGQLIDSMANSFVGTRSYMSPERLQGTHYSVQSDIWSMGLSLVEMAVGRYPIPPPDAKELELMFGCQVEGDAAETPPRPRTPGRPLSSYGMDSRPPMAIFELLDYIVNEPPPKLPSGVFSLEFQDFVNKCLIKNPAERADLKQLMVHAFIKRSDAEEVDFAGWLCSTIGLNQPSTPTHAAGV

For the compound `Fc1ccc(-c2nc3occn3c2-c2ccnc(NC3CCNCC3)n2)cc1` [CCLXXX], the inhibition at 0.1 µM at CDK2/cyclinA is 3%; on FGFR3 it was -1%; at JNK3-His, 39%; on MKK6 it was 0%; on PKB α, -1%; at SAPK4, 0%. For the same compound, the inhibition at 0.1 µM at CaMKIV was -10%; at PKA, 0%; at MAPK1, 20%; on MEK1 it was 9%. Further, the inhibition at 1 µM is 19% at CDK2/cyclinA; 13% at FGFR3; 84% at JNK3-His; 62% at MKK6; 13% at PKB α; 6% on SAPK4. The inhibition at 1 µM at CaMKIV was found to be 7%; on PKA it was 11%; at MAPK1, 45%; at MEK1 it was 13%.
Consider `CN1[C@@H]2CC[C@H]1C[C@@H](Nc1nccc(-c3c(-c4ccc(F)cc4)nc4occn34)n1)C2` [CCLXXXI], for which the inhibition at 0.1 µM at CDK2/cyclinA was -2%; on FGFR3 it was -27%; at JNK3-His it was 19%; at MKK6, 19%; on PKB α it was -2%; at SAPK4, 2%. The inhibition at 0.1 µM on CaMKIV was 12%; at PKA, -11%; at MAPK1 it was 25%; on MEK1, -3%. Also, the inhibition at 1 µM at CDK2/cyclinA worked out at 5%; at FGFR3, 26%; on JNK3-His, 75%; at MKK6, 76%; on PKB α, 6%; on SAPK4, 7%. The inhibition at 1 µM at CaMKIV was 33%; at PKA, -2%; at MAPK1 it was 49%; at MEK1, 7%.
For `CS(=O)(=O)N1CCC(Nc2nccc(-c3c(-c4ccc(F)cc4)nc4occn34)n2)CC1` [CCLXXIX], the inhibition at 0.1 µM came out at 24% at CDK2/cyclinA; 9% on FGFR3; 97% at JNK3-His; 8% at MKK6; 5% on PKB α; 3% on SAPK4. Also, the inhibition at 0.1 µM turned out to be 18% on CaMKIV, 6% at PKA, 29% at MAPK1 and 7% on MEK1. Also, the inhibition at 1 µM on CDK2/cyclinA came out at 65%; at FGFR3, 10%; on JNK3-His, 101%; on MKK6, 90%; at PKB α it was 6%; at SAPK4, 0%. Also, the inhibition at 1 µM was -2% on CaMKIV, -2% on PKA, 79% at MAPK1 and 11% at MEK1.
Take `Fc1ccc(-c2nc3occn3c2-c2ccnc(N[C@@H]3CN4CCC3CC4)n2)cc1` [LXXI]: the inhibition at 0.1 µM on CDK2/cyclinA is 0%; at FGFR3, -1%; at JNK3-His, -7%; on MKK6, -5%; on PKB α, -5%; at SAPK4, -1%. Moreover, the inhibition at 0.1 µM is 5% at CaMKIV, 16% at PKA, 27% on MAPK1 and 2% at MEK1. In addition, the inhibition at 1 µM on CDK2/cyclinA is 8%; on FGFR3, 16%; on JNK3-His it was 59%; at MKK6, 80%; at PKB α, 9%; at SAPK4, 3%. Further, the inhibition at 1 µM on CaMKIV turned out to be 6%; at PKA, 11%; on MAPK1 it was 56%; at MEK1 it was 6%.
For `Fc1ccc(-c2nc3occn3c2-c2ccnc(N[C@H]3CN4CCC3CC4)n2)cc1` [LXXXVII], the inhibition at 0.1 µM was 1% on CDK2/cyclinA; -23% at FGFR3; 19% at JNK3-His; -4% on MKK6; -2% at PKB α; -3% on SAPK4. Besides, the inhibition at 0.1 µM on CaMKIV is -12%; on PKA it was -10%; at MAPK1, 12%; on MEK1, 3%. For the same compound, the inhibition at 1 µM on CDK2/cyclinA is 0%; at FGFR3, -21%; on JNK3-His it was 61%; on MKK6 it was 54%; on PKB α, 5%; on SAPK4, -1%. Moreover, the inhibition at 1 µM was 10% on CaMKIV, -6% on PKA, 27% on MAPK1 and -1% on MEK1.
In the case of `CC(=O)N1CCC(Nc2nccc(-c3c(-c4ccc(F)cc4)nc4occn34)n2)CC1` [CCLXXVIII], the inhibition at 0.1 µM on CDK2/cyclinA was 1%; at FGFR3 it was 19%; at JNK3-His it was 78%; on MKK6, 26%; at PKB α, -6%; on SAPK4, -3%. Further, the inhibition at 0.1 µM on CaMKIV was 8%; on PKA, -6%; at MAPK1 it was 25%; on MEK1 it was 6%. The inhibition at 1 µM at CDK2/cyclinA was 20%; on FGFR3 it was 32%; at JNK3-His, 100%; on MKK6, 83%; at PKB α it was 4%; on SAPK4, -4%. The inhibition at 1 µM at CaMKIV was found to be 21%; on PKA it was 10%; on MAPK1 it was 63%; at MEK1, 13%.
